{"source": "patent US20160115147A1", "about": "“PRO-DRUG COMPOUNDS” (Proximagen Limited, priority 2013, published 2016)", "origin": "cited, not measured here", "key": {"[1]": {"test_system": "unique stereo-selective site in rat brain"}, "[2]": {"test_system": "unique stereo-selective site in human brain"}}, "data": [{"smiles": "CC(=O)c1ccc2c(c1)[C@H](NC(=O)c1ccc(F)c(Cl)c1)[C@H](O)C(C)(C)O2", "note": "[Tonabersat]", "values": [{"measurement": "binding affinity to unique stereo-selective site", "setting": "[1]", "value": "high affinity"}, {"measurement": "binding affinity to unique stereo-selective site", "setting": "[2]", "value": "high affinity"}]}]}
